Literature values, collected in publication PMC6597953, “Taking Advantage of the Selectivity of Histone Deacetylases and Phosphodiesterase Inhibitors to Design Better Therapeutic Strategies to Treat Alzheimer’s Disease” (Frontiers in Aging Neuroscience, 2019).

Legend:
Assay type in all cases: biochemical
HDAC1 = HDAC1 (Homo sapiens, UniProt Q13547); test: IC50 of HDAC1 inhibition (assay not described); AcH3K9 western blot in SH-SY5Y cells at […]
HDAC2 = HDAC2 (Homo sapiens, UniProt Q92769); test: IC50 of HDAC2 inhibition (assay not described)
HDAC6 = target: T1, HDAC6 (Homo sapiens, UniProt Q9UBN7); test: IC50 of HDAC6 inhibition (assay not described); supported by alpha-tubulin acetylation western blot in SH-SY5Y cells
T1 sequence (Q9UBN7 1-1215): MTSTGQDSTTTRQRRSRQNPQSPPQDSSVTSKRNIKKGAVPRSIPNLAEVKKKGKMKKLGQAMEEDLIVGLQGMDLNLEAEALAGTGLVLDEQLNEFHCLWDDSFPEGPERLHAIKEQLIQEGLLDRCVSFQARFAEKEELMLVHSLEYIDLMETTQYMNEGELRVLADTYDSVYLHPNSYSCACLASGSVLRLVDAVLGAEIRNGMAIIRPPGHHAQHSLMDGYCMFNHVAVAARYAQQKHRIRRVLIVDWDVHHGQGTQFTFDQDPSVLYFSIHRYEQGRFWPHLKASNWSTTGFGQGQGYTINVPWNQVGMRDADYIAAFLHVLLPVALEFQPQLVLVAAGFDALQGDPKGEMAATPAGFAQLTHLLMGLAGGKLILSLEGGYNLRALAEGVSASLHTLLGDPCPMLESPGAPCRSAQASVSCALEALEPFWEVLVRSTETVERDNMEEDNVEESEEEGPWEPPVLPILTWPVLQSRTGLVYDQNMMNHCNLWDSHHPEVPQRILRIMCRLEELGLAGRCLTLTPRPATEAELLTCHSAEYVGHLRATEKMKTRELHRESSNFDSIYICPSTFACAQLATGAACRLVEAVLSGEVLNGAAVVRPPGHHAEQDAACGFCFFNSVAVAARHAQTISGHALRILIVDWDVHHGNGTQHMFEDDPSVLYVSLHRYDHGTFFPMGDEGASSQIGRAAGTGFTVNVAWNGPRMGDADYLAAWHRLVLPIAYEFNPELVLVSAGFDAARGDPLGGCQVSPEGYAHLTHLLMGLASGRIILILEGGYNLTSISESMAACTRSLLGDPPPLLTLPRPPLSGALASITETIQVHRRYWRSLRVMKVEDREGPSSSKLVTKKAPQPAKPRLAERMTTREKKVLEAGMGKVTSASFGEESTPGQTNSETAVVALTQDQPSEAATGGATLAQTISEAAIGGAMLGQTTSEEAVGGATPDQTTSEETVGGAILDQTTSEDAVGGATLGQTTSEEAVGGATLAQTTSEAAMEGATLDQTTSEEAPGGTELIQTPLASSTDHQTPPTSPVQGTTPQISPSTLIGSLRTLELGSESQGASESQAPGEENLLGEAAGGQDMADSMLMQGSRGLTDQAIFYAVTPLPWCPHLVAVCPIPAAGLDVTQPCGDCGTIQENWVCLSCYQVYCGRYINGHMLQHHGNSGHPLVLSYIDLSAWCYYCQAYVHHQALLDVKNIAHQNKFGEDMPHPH

PDE9 = target: T2, PDE9 (Homo sapiens, UniProt O76083); test: IC50 of PDE9 inhibition (assay not described); supported by pCREB western blot in SH-SY5Y cells
T2 construct: gene PDE9A
T2 sequence (O76083 whole entry): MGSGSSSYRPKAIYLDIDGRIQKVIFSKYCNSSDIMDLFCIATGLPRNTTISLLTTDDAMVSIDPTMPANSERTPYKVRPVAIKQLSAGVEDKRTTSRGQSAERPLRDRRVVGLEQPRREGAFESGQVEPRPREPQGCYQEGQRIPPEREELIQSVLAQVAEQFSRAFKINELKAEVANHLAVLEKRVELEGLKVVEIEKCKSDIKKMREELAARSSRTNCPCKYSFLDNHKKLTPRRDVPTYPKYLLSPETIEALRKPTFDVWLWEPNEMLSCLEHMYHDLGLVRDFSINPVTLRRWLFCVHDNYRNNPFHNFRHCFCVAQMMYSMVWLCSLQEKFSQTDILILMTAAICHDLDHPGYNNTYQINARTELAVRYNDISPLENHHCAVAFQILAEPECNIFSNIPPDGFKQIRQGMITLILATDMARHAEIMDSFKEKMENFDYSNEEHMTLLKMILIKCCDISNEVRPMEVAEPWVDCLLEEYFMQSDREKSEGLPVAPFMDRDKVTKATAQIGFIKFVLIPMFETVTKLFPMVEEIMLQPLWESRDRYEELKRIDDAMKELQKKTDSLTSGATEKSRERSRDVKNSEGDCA

Sequence of HDAC1 (Q13547 whole entry): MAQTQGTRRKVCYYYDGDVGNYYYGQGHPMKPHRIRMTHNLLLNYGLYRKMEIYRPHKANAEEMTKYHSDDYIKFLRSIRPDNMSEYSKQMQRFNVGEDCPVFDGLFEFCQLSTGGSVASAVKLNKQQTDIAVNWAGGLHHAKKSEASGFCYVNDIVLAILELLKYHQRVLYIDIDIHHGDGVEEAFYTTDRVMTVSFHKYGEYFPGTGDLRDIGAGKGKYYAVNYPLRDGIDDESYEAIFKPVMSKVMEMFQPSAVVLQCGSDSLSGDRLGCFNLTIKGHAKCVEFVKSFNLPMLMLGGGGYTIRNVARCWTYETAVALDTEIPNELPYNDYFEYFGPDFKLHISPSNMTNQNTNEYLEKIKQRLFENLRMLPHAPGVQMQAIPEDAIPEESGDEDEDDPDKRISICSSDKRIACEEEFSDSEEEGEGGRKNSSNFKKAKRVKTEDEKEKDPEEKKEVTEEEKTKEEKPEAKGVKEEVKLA
Sequence of HDAC2 (Q92769 whole entry): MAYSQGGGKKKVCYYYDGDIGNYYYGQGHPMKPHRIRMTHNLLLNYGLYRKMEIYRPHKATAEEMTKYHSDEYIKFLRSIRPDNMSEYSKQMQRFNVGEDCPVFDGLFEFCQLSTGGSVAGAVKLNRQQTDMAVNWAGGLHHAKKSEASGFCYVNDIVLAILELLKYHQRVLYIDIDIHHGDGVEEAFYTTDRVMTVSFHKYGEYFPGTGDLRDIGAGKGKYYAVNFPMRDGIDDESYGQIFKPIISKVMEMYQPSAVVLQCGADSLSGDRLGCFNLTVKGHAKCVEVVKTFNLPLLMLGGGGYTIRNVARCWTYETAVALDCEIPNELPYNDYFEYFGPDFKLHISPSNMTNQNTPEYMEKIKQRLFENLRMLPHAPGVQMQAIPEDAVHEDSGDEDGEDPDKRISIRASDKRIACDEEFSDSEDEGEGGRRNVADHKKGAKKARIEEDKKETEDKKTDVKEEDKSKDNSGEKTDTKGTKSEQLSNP

CM-695
IC50 (HDAC1): 593 nM
IC50 (HDAC2): 3530 nM
IC50 (HDAC6): 40 nM
IC50 (PDE9): 107 nM
